Measured values as given in patent US20240165423A1, “METHODS, SYSTEMS AND DEVICES FOR MODULATING CENTRAL NERVOUS SYSTEM INFLAMMATION AND POST-OPERATIVE PAIN” (Arizona Board of Regents on Behalf of the University of …, priority 2021, published 2024).

Test system: elderly Sprague-Dawley rats with paw incision surgery
Details: males and females; morphine 1 or 5 mg/kg s.c. 24 h after surgery

Structure (SMILES): CN1CC[C@]23c4c5ccc(O)c4O[C@H]2[C@@H](O)C=C[C@H]3[C@H]1C5.O=S(=O)(O)O [morphine, morphine sulfate]
- paw withdrawal thresholds of morphine-injected animals compared with saline-injected counterparts: higher than that of their saline-injected counterparts at up to 1.5 hours post-injection
